{"source": "patent US8058295B2", "about": "“Cystic fibrosis transmembrane conductance regulator protein inhibitors and uses thereof” (The Regents of the University of California, priority 2002, dated 2011)", "key": {"[1]": {"experiment": "Caco-2 permeability assay", "type": "in vitro ADME", "details": "human, pH 7.3, Caco-2 monolayers, read-out: permeability coefficient (Papp)", "procedure": "Caco-2 cells were cultured on porous inserts to give monolayer resistances of […]. For transport studies culture medium was replaced with an equal volume of Hank's buffered salt solution (HBSS) containing 15 mM glucose and 25 mM HEPES (pH 7.3)."}, "[2]": {"molecular_target": "CFTR (Homo sapiens, UniProt P13569)", "sequence (P13569 whole entry)": "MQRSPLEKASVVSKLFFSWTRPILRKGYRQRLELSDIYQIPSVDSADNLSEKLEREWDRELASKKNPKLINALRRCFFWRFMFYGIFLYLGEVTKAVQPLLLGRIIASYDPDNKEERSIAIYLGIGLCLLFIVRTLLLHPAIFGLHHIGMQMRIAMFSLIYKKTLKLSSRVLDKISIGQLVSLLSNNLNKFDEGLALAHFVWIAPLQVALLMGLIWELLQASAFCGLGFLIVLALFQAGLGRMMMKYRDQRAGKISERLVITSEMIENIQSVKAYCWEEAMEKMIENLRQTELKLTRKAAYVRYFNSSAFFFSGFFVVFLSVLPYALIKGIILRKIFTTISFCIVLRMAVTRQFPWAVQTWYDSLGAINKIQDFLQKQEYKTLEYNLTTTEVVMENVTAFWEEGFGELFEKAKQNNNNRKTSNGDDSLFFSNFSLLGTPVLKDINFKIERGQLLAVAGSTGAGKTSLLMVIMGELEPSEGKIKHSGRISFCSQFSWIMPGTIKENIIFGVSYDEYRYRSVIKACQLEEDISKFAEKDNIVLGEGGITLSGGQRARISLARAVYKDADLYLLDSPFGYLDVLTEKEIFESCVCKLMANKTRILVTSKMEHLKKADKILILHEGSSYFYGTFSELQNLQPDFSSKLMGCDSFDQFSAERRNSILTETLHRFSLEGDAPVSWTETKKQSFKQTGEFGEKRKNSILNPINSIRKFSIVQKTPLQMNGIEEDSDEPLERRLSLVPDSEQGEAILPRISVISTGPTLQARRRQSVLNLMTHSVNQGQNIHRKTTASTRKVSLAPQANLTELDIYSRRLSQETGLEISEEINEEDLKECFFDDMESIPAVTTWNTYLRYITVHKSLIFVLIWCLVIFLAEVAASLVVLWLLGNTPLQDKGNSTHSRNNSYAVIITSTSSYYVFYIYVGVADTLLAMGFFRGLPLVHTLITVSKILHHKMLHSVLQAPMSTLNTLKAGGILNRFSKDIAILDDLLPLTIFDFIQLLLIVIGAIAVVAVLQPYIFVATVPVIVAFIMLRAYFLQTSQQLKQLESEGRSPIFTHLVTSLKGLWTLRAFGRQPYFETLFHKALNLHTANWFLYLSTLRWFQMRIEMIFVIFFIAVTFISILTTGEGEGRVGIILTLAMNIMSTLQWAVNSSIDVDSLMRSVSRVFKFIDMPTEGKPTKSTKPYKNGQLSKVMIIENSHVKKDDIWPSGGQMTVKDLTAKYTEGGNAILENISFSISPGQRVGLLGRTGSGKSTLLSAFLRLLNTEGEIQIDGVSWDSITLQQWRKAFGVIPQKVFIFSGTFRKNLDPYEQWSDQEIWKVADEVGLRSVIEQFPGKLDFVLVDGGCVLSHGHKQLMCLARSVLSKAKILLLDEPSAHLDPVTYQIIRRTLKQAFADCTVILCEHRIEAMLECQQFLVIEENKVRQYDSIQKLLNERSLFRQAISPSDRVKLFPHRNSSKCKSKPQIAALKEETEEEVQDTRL", "experiment": "Electrophysiological studies in Calu-3 cells", "type": "cell-based", "set-up": "cells that natively express wildtype CFTR, including T84 cells; endogenous in cells; host or cells: T84 colonic epithelial cells (UCSF cell culture facility)", "details": "read-out: apparent potency in electrophysiological studies"}, "[3]": {"tested_on": "cellular cAMP production", "experiment": "Intracellular cAMP assay in FRT cells", "type": "cell-based, rat"}, "[4]": {"molecular_target": "T1, urea transporter (UT-B) (Homo sapiens, UniProt Q13336)", "T1 sequence (Q13336 1-389)": "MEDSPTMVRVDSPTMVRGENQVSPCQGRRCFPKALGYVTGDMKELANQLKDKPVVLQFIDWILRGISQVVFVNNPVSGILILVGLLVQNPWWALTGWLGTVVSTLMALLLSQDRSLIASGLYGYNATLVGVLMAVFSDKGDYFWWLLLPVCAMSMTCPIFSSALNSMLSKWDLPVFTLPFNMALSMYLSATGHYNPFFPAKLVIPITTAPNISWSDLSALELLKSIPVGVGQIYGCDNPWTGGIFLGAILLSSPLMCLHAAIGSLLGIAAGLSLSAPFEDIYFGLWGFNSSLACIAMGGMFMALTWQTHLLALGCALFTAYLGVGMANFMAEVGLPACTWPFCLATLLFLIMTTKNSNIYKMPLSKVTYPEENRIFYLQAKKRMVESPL", "experiment": "Urea transporter block", "details": "5 μM"}, "[5]": {"tested_on": "FRT cells", "experiment": "Cell toxicity by dihydrorhodamine method", "type": "cell-based, rat", "details": "dihydrorhodamine assay, after 24 hours"}}}
{"smiles": "O=C(O)c1ccc(/C=C2\\SC(=S)N(c3cccc(C(F)(F)F)c3)C2=O)cc1", "note": "[CFTRinh-172, 3-[(3-trifluoromethyl)phenyl]-5-[(4-carboxyphenyl)methylene]-2-thioxo-4-thiazolidinone]", "values": [{"measurement": "Papp A→B at 25 μM", "setting": "[1]", "result": 160, "unit": "nm/s"}, {"measurement": "IC50", "setting": "[2]", "result": 0.5, "unit": "µM"}, {"measurement": "effect on cellular cAMP production", "setting": "[3]; 5 μM", "result": "did not affect"}, {"measurement": "cAMP content", "setting": "[3]; 30 min after 20 μM forskolin, + inhibitor (n=3)", "result": "1140±50", "unit": "fmol/well"}, {"measurement": "block of urea transporter (UT-B)", "setting": "[4]", "result": "did not block"}, {"measurement": "concentration non-toxic to FRT cells", "setting": "[5]", "result": "up to 100 μM"}]}
